Experimental data: ChEMBL document CHEMBL4130561, “Design and Synthesis of N1-Modified Imidazoquinoline Agonists for Selective Activation of Toll-like Receptors 7 and 8” (ACS Med Chem Lett, 2017)
Each block holds one compound with its values, some of them ahead of it. Activity calls are given as the source filed them. No cut-off for these calls is given here.

Assays:
[1] = biological target: T1, Toll-like receptor 8 (Homo sapiens) (UniProt Q9NR97); test: Agonist activity at human TLR8 expressed in HEK cells at 180 uM after 8 to 12 hrs by NFkappaB/SEAP reporter gene assay; assay type: cell-based
T1 sequence (whole entry): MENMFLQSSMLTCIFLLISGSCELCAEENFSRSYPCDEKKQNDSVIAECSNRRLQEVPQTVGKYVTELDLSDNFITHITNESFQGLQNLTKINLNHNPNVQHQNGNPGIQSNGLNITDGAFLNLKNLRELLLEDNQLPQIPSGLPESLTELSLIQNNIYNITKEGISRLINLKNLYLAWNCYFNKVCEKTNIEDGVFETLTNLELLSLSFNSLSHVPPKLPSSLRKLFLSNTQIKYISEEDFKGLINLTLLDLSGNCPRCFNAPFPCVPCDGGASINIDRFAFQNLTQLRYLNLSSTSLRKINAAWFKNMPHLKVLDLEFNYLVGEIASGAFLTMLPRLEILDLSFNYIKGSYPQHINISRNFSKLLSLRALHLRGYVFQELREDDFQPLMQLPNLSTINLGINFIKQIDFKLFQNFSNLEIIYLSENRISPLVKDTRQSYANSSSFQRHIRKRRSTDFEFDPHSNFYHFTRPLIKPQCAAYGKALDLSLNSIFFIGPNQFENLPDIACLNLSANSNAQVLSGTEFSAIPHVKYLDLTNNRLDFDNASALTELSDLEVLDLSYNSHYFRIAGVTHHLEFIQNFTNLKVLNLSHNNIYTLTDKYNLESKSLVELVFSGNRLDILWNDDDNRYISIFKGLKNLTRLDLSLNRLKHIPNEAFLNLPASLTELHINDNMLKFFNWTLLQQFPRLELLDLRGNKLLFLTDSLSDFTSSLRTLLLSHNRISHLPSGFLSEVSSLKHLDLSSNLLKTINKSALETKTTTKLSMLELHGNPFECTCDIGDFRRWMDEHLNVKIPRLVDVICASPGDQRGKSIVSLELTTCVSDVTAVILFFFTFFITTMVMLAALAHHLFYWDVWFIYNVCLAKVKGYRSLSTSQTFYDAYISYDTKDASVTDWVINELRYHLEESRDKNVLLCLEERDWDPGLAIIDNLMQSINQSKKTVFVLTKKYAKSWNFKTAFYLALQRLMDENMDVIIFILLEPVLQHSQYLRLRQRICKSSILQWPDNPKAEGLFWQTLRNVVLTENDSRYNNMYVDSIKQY

[2] = biological target: T2, Toll-like receptor 7 (Homo sapiens) (UniProt Q9NYK1); test: Agonist activity at human TLR7 expressed in HEK cells at 180 uM after 8 to 12 hrs by NFkappaB/SEAP reporter gene assay; assay type: cell-based
T2 sequence (whole entry): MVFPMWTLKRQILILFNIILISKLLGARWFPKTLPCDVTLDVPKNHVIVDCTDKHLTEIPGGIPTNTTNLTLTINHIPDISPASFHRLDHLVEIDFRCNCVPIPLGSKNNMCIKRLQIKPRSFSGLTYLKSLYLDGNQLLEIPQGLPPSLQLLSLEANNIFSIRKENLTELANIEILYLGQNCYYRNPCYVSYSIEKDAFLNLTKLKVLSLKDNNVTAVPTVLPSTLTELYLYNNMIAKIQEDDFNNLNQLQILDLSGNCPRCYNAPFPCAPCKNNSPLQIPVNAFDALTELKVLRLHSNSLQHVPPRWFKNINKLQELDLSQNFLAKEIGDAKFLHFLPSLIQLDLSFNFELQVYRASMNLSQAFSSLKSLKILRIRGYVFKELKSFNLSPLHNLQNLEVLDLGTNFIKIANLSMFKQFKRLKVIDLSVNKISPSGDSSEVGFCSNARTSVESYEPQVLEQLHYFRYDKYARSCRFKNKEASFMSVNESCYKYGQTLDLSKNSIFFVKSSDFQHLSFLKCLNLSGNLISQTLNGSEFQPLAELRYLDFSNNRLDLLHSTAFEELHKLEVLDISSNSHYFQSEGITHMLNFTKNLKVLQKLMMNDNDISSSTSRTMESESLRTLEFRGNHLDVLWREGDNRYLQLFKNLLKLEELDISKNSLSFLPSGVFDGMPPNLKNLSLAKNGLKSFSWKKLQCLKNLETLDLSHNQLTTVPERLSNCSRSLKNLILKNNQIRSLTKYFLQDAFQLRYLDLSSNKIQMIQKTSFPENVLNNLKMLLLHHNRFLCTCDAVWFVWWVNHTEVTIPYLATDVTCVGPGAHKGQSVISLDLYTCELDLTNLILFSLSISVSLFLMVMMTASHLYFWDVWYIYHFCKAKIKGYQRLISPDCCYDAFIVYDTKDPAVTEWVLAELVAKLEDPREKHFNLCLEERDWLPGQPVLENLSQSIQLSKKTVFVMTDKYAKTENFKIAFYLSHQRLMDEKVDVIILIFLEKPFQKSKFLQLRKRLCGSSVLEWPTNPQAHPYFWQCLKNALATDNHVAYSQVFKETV

[3] = biological target: T3, Toll-like receptor 7 (Homo sapiens, UniProt Q9NYK1); test: Agonist activity at human TLR7 expressed in HEK cells after 8 to 12 hrs by NFkappaB/SEAP reporter gene assay; assay type: cell-based
T3 sequence (Q9NYK1 whole entry): T2 sequence (whole entry)

[4] = biological target: T4, Toll-like receptor 8 (Homo sapiens, UniProt Q9NR97); test: Agonist activity at human TLR8 expressed in HEK cells after 8 to 12 hrs by NFkappaB/SEAP reporter gene assay; assay type: cell-based
T4 sequence (Q9NR97 whole entry): T1 sequence (whole entry)

[5] = system: PBMC; test: Immunostimulatory activity in human PBMC assessed as increase in IL-12p70 levels at 0.39 to 50 uM after 24 hrs by ELISA; assay type: functional, cell-based
[6] = system: PBMC; test: Immunostimulatory activity in human PBMC assessed as increase in IFNgamma levels at 0.39 to 50 uM after 24 hrs by ELISA; assay type: functional, cell-based
[7] = system: PBMC; test: Immunostimulatory activity in human PBMC assessed as increase in IL-1beta levels at 0.39 to 50 uM after 24 hrs by ELISA; assay type: functional, cell-based
[8] = system: PBMC; test: Immunostimulatory activity in human PBMC assessed as increase in TNFalpha levels at 0.39 to 50 uM after 24 hrs by ELISA; assay type: functional, cell-based
[9] = system: PBMC; test: Immunostimulatory activity in human PBMC assessed as increase in TNFalpha levels at 12.5 uM after 24 hrs by ELISA; assay type: functional, cell-based
[10] = system: PBMC; test: Immunostimulatory activity in human PBMC assessed as increase in IL-1beta levels at 1 uM after 24 hrs by ELISA; assay type: functional, cell-based
[11] = system: PBMC; test: Immunostimulatory activity in human PBMC assessed as increase in IFNgamma levels at 1 uM after 24 hrs by ELISA; assay type: functional, cell-based
[12] = system: PBMC; test: Immunostimulatory activity in human PBMC assessed as increase in TNFalpha levels at 1 uM after 24 hrs by ELISA; assay type: functional, cell-based
[13] = system: PBMC; test: Immunostimulatory activity in human PBMC assessed as increase in IFNgamma levels at 12.5 uM after 24 hrs by ELISA; assay type: functional, cell-based
[14] = system: PBMC; test: Immunostimulatory activity in human PBMC assessed as increase in IL-1beta levels at 12.5 uM after 24 hrs by ELISA; assay type: functional, cell-based
[15] = system: PBMC; test: Immunostimulatory activity in human PBMC assessed as increase in IL-12p70 levels at 12.5 uM after 24 hrs by ELISA; assay type: functional, cell-based

Compound: CCCCCCCC(=O)OC(C)Cn1c(CCCC)nc2c(N)nc3cc(C(=O)OC)ccc3c21 (configuration not stated)
- Activity [2]: inactive
- Activity [1]: inactive

Compound: CCCCc1nc2c(N)nc3cc(C(=O)OC)ccc3c2n1CCCCC(=O)OC
- Activity [1]: inactive

Compound: CCCCc1nc2c(N)nc3cc(C(=O)OC)ccc3c2n1CCC(=O)OC
- Activity [1]: inactive

Compound: CCCCc1nc2c(N)nc3cc(C(=O)OC)ccc3c2n1CCCN
- EC50 [4]: 26.7 µM
- Activity [2]: inactive

Compound: CCCCc1nc2c(N)nc3cc(C(=O)OC)ccc3c2n1CCCCC(=O)O
- Activity [2]: inactive
- Activity [1]: inactive

Compound: CCCCc1nc2c(N)nc3cc(C(=O)OC)ccc3c2n1Cc1ccc(CN)cc1
- Activity [9]: Active

Compound: CCCCc1nc2c(N)nc3cc(C(=O)OC)ccc3c2n1CC(=O)OC
- Activity [1]: inactive

Compound: CCCCc1nc2c(N)nc3cc(C(=O)OC)ccc3c2n1Cc1ccc(C(=O)O)cc1
- Activity [1]: inactive

Compound: CCCCc1nc2c(N)nc3cc(C(=O)OC)ccc3c2n1CCSCC
- Activity [1]: inactive

Compound: CCCCc1nc2c(N)nc3cc(C(=O)OC)ccc3c2n1CCSC
- Activity [10]: Active
- Activity [11]: Active
- Activity [1]: inactive
- Activity [12]: Active

Compound: CCCCc1nc2c(N)nc3cc(C(=O)OC)ccc3c2n1CC(C)OC(C)=O (configuration not stated)
- EC50 [3]: 3.06 µM
- Activity [1]: inactive

Compound: CCCCc1nc2c(N)nc3cc(C(=O)OC)ccc3c2n1CCCC(=O)OC
- Activity [1]: inactive

Compound: CCCCc1nc2c(N)nc3cc(C(=O)OC)ccc3c2n1CCN
- Activity [13]: Active
- Activity [14]: Active
- Activity [2]: inactive
- Activity [15]: Active

The next lines start with results.

- Activity [1]: inactive
Compound: CCCCc1nc2c(N)nc3cc(C(=O)OC)ccc3c2n1CCCSC

- Activity [2]: inactive
- Activity [1]: inactive
Compound: CCCCc1nc2c(N)nc3cc(C(=O)OC)ccc3c2n1CCc1ccc(C(=O)O)cc1

- EC50 [3]: 3.21 µM
- Activity [1]: inactive
Compound: CCCCc1nc2c(N)nc3cc(C(=O)OC)ccc3c2n1CCCCO

- Activity [1]: inactive
Compound: CCCCc1nc2c(N)nc3cc(C(=O)OC)ccc3c2n1CCCCCC(=O)OC

- Activity [2]: inactive
Compound: CCCCc1nc2c(N)nc3cc(C(=O)OC)ccc3c2n1CCCCN

- EC50 [4]: 20.9 µM
- EC50 [3]: 1.69 µM
Compound: CCCCc1nc2c(N)nc3cc(C(=O)OC)ccc3c2n1CC(C)(C)O

- EC50 [3]: 1.72 µM
- Activity [1]: inactive
Compound: CCCCc1nc2c(N)nc3cc(C(=O)OC)ccc3c2n1CCCO

- EC50 [3]: 11.4 µM
- Activity [1]: inactive
Compound: CC(C)Cn1cnc2c(N)nc3ccccc3c21 [IMIQUIMOD]
- Activity [5]: inactive
- Activity [6]: inactive
- Activity [7]: inactive
- Activity [8]: inactive

- EC50 [4]: 37 µM
- EC50 [3]: 14.4 µM
Compound: CCCCc1nc2c(N)nc3cc(C(=O)OC)ccc3c2n1CCO
